Experimental data reported in the NIST ThermoML archive (doi:10.1016/j.jct.2019.04.023).

Experiment: xn = mol fraction of the nth substance listed
Details: 101 kPa, Liquid; for viscosity: Falling or rolling sphere viscometry; for mass density: Vibrating tube method

CC[N+](CC)=C(N(C)C)N(C)C.O=S(=O)([N-]S(=O)(=O)C(F)(F)F)C(F)(F)F + CO
Details | mass density [kg/m3] | viscosity [mPa·s]
293.15 K, x1 = 0.0999 | 1073.55 | 1.848
293.15 K, x1 = 0.1984 | 1186.61 | 4.046
293.15 K, x1 = 0.3011 | 1249.9 | 7.913
293.15 K, x1 = 0.4008 | 1288.15 | 13.15
293.15 K, x1 = 0.5055 | 1315.68 | 19.75
293.15 K, x1 = 0.5916 | 1332.42 | 26.14
293.15 K, x1 = 0.712 | 1350.19 | 37.44
293.15 K, x1 = 0.7994 | 1360.11 | 46.94
293.15 K, x1 = 0.8995 | 1369.61 | 61.78
293.15 K, x1 = 1 | 1377.86 | 81.02
298.15 K, x1 = 0.0999 | 1068.63 | 1.685
298.15 K, x1 = 0.1984 | 1181.69 | 3.569
298.15 K, x1 = 0.3011 | 1245.05 | 6.875
298.15 K, x1 = 0.4008 | 1283.31 | 11.36
298.15 K, x1 = 0.5055 | 1310.86 | 16.81
298.15 K, x1 = 0.5916 | 1327.63 | 22.03
298.15 K, x1 = 0.712 | 1345.44 | 30.94
298.15 K, x1 = 0.7994 | 1355.37 | 38.51
298.15 K, x1 = 0.8995 | 1364.9 | 49.75
298.15 K, x1 = 1 | 1373.16 | 65.01
303.15 K, x1 = 0.0999 | 1063.71 | 1.538
303.15 K, x1 = 0.1984 | 1176.79 | 3.198
303.15 K, x1 = 0.3011 | 1240.23 | 6.03
303.15 K, x1 = 0.4008 | 1278.51 | 9.842
303.15 K, x1 = 0.5055 | 1306.08 | 14.47
303.15 K, x1 = 0.5916 | 1322.88 | 18.78
303.15 K, x1 = 0.712 | 1340.73 | 26.03
303.15 K, x1 = 0.7994 | 1350.68 | 32.26
303.15 K, x1 = 0.8995 | 1360.23 | 41.13
303.15 K, x1 = 1 | 1368.51 | 52.96
308.15 K, x1 = 0.0999 | 1058.79 | 1.413
308.15 K, x1 = 0.1984 | 1171.9 | 2.949
308.15 K, x1 = 0.3011 | 1235.43 | 5.332
308.15 K, x1 = 0.4008 | 1273.73 | 8.651
308.15 K, x1 = 0.5055 | 1301.33 | 12.59
308.15 K, x1 = 0.5916 | 1318.16 | 16.22
308.15 K, x1 = 0.712 | 1336.05 | 22.2
308.15 K, x1 = 0.7994 | 1346.03 | 27.19
308.15 K, x1 = 0.8995 | 1355.6 | 34.31
308.15 K, x1 = 1 | 1363.9 | 43.84
313.15 K, x1 = 0.0999 | 1053.86 | 1.296
313.15 K, x1 = 0.1984 | 1167.01 | 2.613
313.15 K, x1 = 0.3011 | 1230.63 | 4.749
313.15 K, x1 = 0.4008 | 1268.96 | 7.645
313.15 K, x1 = 0.5055 | 1296.6 | 11.05
313.15 K, x1 = 0.5916 | 1313.46 | 14.12
313.15 K, x1 = 0.712 | 1331.4 | 19.15
313.15 K, x1 = 0.7994 | 1341.4 | 23.25
313.15 K, x1 = 0.8995 | 1351 | 29.05
313.15 K, x1 = 1 | 1359.32 | 36.79
318.15 K, x1 = 0.0999 | 1048.89 | 1.2
318.15 K, x1 = 0.1984 | 1162.1 | 2.362
318.15 K, x1 = 0.3011 | 1225.81 | 4.261
318.15 K, x1 = 0.4008 | 1264.19 | 6.815
318.15 K, x1 = 0.5055 | 1291.87 | 9.775
318.15 K, x1 = 0.5916 | 1308.77 | 12.43
318.15 K, x1 = 0.712 | 1326.77 | 16.69
318.15 K, x1 = 0.7994 | 1336.79 | 20.12
318.15 K, x1 = 0.8995 | 1346.42 | 24.89
318.15 K, x1 = 1 | 1354.76 | 31.25
323.15 K, x1 = 0.0999 | 1043.89 | 1.114
323.15 K, x1 = 0.1984 | 1157.19 | 2.157
323.15 K, x1 = 0.3011 | 1221 | 3.854
323.15 K, x1 = 0.4008 | 1259.42 | 6.126
323.15 K, x1 = 0.5055 | 1287.15 | 8.704
323.15 K, x1 = 0.5916 | 1304.09 | 10.98
323.15 K, x1 = 0.712 | 1322.14 | 14.66
323.15 K, x1 = 0.7994 | 1332.18 | 17.56
323.15 K, x1 = 0.8995 | 1341.85 | 21.56
323.15 K, x1 = 1 | 1350.21 | 26.79
